From ChEMBL document CHEMBL1201862, “PubChem BioAssay data set” (2004)
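Exposure lasted 48 hours, with cells grown in 96-well plates and compounds tested at five concentrations. GI50: concentration for 50% inhibition of growth.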 Calls of active or inactive are those of the source. Cut-off read from the data, not from the text of the source: active = GI50 up to about 1.1 µM and inactive = higher.

Legend:
Experiment in all cases: DTP human tumour cell line panel, 48 h
HOP-62 = tested on: HOP-62
MDA-MB-231 = tested on: MDA-MB-231
NCI-H522 = tested on: NCI-H522
SNB-75 = tested on: SNB-75
K562 = tested on: K562
TK-10 = tested on: TK-10
SK-MEL-2 = tested on: SK-MEL-2
LOX IMVI = tested on: LOX IMVI
IGROV-1 = tested on: IGROV-1
SF-295 = tested on: SF-295
MOLT-4 = tested on: MOLT-4
SK-MEL-28 = tested on: SK-MEL-28
MDA-MB-435 = tested on: MDA-MB-435
HCC 2998 = tested on: HCC 2998
RXF 393 = tested on: RXF 393
CCRF-CEM = tested on: CCRF-CEM
OVCAR-5 = tested on: OVCAR-5
PC-3 = tested on: PC-3
OVCAR-8 = tested on: OVCAR-8
UACC-257 = tested on: UACC-257

| SMILES | GI50 (HOP-62) | GI50 (MDA-MB-231) | GI50 (NCI-H522) | GI50 (SNB-75) | GI50 (K562) | GI50 (TK-10) | GI50 (SK-MEL-2) | GI50 (LOX IMVI) | GI50 (IGROV-1) | GI50 (SF-295) | GI50 (MOLT-4) | GI50 (SK-MEL-28) | GI50 (MDA-MB-435) | GI50 (HCC 2998) | GI50 (RXF 393) | GI50 (CCRF-CEM) | GI50 (OVCAR-5) | GI50 (PC-3) | GI50 (OVCAR-8) | GI50 (UACC-257) |
| --- | --- | --- | --- | --- | --- | --- | --- | --- | --- | --- | --- | --- | --- | --- | --- | --- | --- | --- | --- | --- |
| OC[C@H]1N[C@H](CO)[C@@H](O)[C@H]1O | > 100 µM (inactive) | > 100 µM (inactive) | > 100 µM (inactive) | > 100 µM (inactive) | > 100 µM (inactive) | > 100 µM (inactive) | > 100 µM (inactive) | > 100 µM (inactive) | > 100 µM (inactive) | > 100 µM (inactive) | > 100 µM (inactive) | > 100 µM (inactive) | > 100 µM (inactive) | > 100 µM (inactive) | > 100 µM (inactive) | > 100 µM (inactive) | > 100 µM (inactive) | > 100 µM (inactive) | > 100 µM (inactive) | > 100 µM (inactive) |
| COc1ccc(C(SCC(N)C(=O)O)(c2ccc(OC)cc2)c2ccc(OC)cc2)cc1 (stereo not given) | 13 µM (inactive) | 13.2 µM (inactive) | 14.1 µM (inactive) | 11.3 µM (inactive) | 10 µM (inactive) | 14.9 µM (inactive) | 12 µM (inactive) | 9.02 µM (inactive) | 13.3 µM (inactive) | 11.8 µM (inactive) | 12.6 µM (inactive) | 11.8 µM (inactive) | 2.97 µM (inactive) | 12.9 µM (inactive) | 8.47 µM (inactive) | 13.7 µM (inactive) | 13.9 µM (inactive) | 11.1 µM (inactive) | 12.4 µM (inactive) | 11.9 µM (inactive) |
| COC(=O)C1=CC2C(=O)c3ccccc3C1(c1ccccc1)N2C1CCCCC1 (stereo not given) | 16.7 µM (inactive) | 17 µM (inactive) | 27.9 µM (inactive) | 35.1 µM (inactive) | 4.63 µM (inactive) | 30.1 µM (inactive) | 12.3 µM (inactive) | 15.5 µM (inactive) | 20.1 µM (inactive) | 16 µM (inactive) | 7.55 µM (inactive) | 17.6 µM (inactive) | 16.9 µM (inactive) | 3.15 µM (inactive) | 7.87 µM (inactive) | 15.1 µM (inactive) | 32.3 µM (inactive) | 9.62 µM (inactive) | 27 µM (inactive) | 12.4 µM (inactive) |
| C[n+]1cccc2ccc3cccnc3c21 | 19.5 µM (inactive) | 83.6 µM (inactive) | 10 µM (inactive) | 23.6 µM (inactive) | > 100 µM (inactive) | 27.5 µM (inactive) | 19.3 µM (inactive) | 29 µM (inactive) | 76 µM (inactive) | 43.6 µM (inactive) | > 100 µM (inactive) | 55.7 µM (inactive) | 69.2 µM (inactive) | 49.2 µM (inactive) | 46.3 µM (inactive) | > 100 µM (inactive) | 82 µM (inactive) | 27.5 µM (inactive) | 12.3 µM (inactive) | 41.9 µM (inactive) |
| COc1cc2nc3c(=C(C#N)C#N)c4ccccc4n3c(=O)c2cc1OC | > 100 µM (inactive) | > 100 µM (inactive) | > 100 µM (inactive) | 41.6 µM (inactive) | > 100 µM (inactive) | > 100 µM (inactive) | > 100 µM (inactive) | > 100 µM (inactive) | > 100 µM (inactive) | > 100 µM (inactive) | > 100 µM (inactive) |  | > 100 µM (inactive) | > 100 µM (inactive) | > 100 µM (inactive) | 32.4 µM (inactive) | > 100 µM (inactive) | > 100 µM (inactive) | > 100 µM (inactive) | > 100 µM (inactive) |
| CCCN(C(=O)c1ccccc1)C(C#N)c1ccc(C(C#N)N(CCC)C(=O)c2ccccc2)cc1 (stereo not given) | 27.1 µM (inactive) | 66.1 µM (inactive) | > 100 µM (inactive) | 18.4 µM (inactive) | > 100 µM (inactive) | > 100 µM (inactive) | > 100 µM (inactive) | > 100 µM (inactive) | 32.4 µM (inactive) | 42.4 µM (inactive) | > 100 µM (inactive) |  | > 100 µM (inactive) | > 100 µM (inactive) | 35.6 µM (inactive) | > 100 µM (inactive) | 93.3 µM (inactive) | 68.9 µM (inactive) | 55.3 µM (inactive) | > 100 µM (inactive) |
| C[Si](C)(C)OC1(C#N)c2ccccc2CCCC12CCCC2 (stereo not given) | 67.9 µM (inactive) | 50.9 µM (inactive) | 21.9 µM (inactive) | 49.8 µM (inactive) | 34.7 µM (inactive) | > 100 µM (inactive) | 18.5 µM (inactive) | 22 µM (inactive) | 43.3 µM (inactive) | 34 µM (inactive) | 23.1 µM (inactive) | 44.5 µM (inactive) | 44.1 µM (inactive) | 16.4 µM (inactive) | 26.5 µM (inactive) | 19.6 µM (inactive) | > 100 µM (inactive) | 41.1 µM (inactive) | 50.9 µM (inactive) | 21.4 µM (inactive) |
| CC(=O)OCC1OC(O[C@@H]2C[C@H]3C(C)(C)[C@H](OC(C)=O)CC[C@]3(C)[C@H]3CC[C@@]45C[C@H](O)C[C@H](C)[C@@H]4CC=C5[C@@]32C)C(O)C(O)C1O (stereo not given in full) | 9.53 µM (inactive) | 2.39 µM (inactive) | 2.72 µM (inactive) | 3.16 µM (inactive) | 2.61 µM (inactive) | 8.93 µM (inactive) | 2.33 µM (inactive) | 1.98 µM (inactive) | 2.71 µM (inactive) | 3.66 µM (inactive) | 2.32 µM (inactive) | 7.19 µM (inactive) | 3.27 µM (inactive) | 2.03 µM (inactive) | 2.11 µM (inactive) | 2.81 µM (inactive) | 2.18 µM (inactive) | 3.03 µM (inactive) | 4.83 µM (inactive) | 4.72 µM (inactive) |
| CN(C)CCCn1nc(N)c2nc3cc(Cl)ccc3nc21 | 55.3 µM (inactive) | 58.3 µM (inactive) | 61.9 µM (inactive) | 67.8 µM (inactive) | > 76.2 µM (inactive) | 54.7 µM (inactive) | 28.3 µM (inactive) | 34.8 µM (inactive) | 22.9 µM (inactive) | > 77.1 µM (inactive) | > 50.4 µM (inactive) | 18.1 µM (inactive) | 34 µM (inactive) | 35.7 µM (inactive) | 30.6 µM (inactive) | 31 µM (inactive) | 40.4 µM (inactive) | 41.4 µM (inactive) | 40.2 µM (inactive) | 24.5 µM (inactive) |
| COc1cc2c(cc1OC)C(=O)/C(=C/c1cc(C)cc(C)c1)C2 | 0.127 µM (active) | 0.143 µM (active) | 0.0451 µM (active) | 0.211 µM (active) | 0.0232 µM (active) | 21.1 µM (inactive) | 0.184 µM (active) | 0.0807 µM (active) | 0.0908 µM (active) | < 0.0301 µM (active) | 0.504 µM (active) | 40.7 µM (inactive) | < 0.0146 µM (active) | 0.0601 µM (active) | 0.0736 µM (active) | 0.0514 µM (active) | 1.09 µM (active) | 0.0667 µM (active) | 0.175 µM (active) | 0.561 µM (active) |
| c1ccc2cc(CNCCCCNCCCNCc3ccc4ccccc4c3)ccc2c1 | 1.61 µM (inactive) | 1.82 µM (inactive) | 1.14 µM (inactive) | 1.5 µM (inactive) | 0.259 µM (active) | 1.75 µM (inactive) | 2.07 µM (inactive) | 0.202 µM (active) | 0.585 µM (active) | 1.5 µM (inactive) | 0.256 µM (active) | 1.69 µM (inactive) | 1.45 µM (inactive) | 0.48 µM (active) | 1.49 µM (inactive) | 0.351 µM (active) | 1.87 µM (inactive) | 1.63 µM (inactive) | 1.69 µM (inactive) | 1.88 µM (inactive) |
| COC(=O)c1ccccc1NC(=S)NN(C)C |  | > 100 µM (inactive) | > 100 µM (inactive) | 28.6 µM (inactive) | > 100 µM (inactive) | > 100 µM (inactive) | > 100 µM (inactive) | > 100 µM (inactive) | > 100 µM (inactive) | > 100 µM (inactive) | > 100 µM (inactive) | > 100 µM (inactive) | > 100 µM (inactive) | > 100 µM (inactive) | > 100 µM (inactive) | > 100 µM (inactive) | > 100 µM (inactive) | > 100 µM (inactive) | > 100 µM (inactive) | > 100 µM (inactive) |
| CC(=O)/N=C1/N(/C=C2\C(=O)Oc3ccccc3C2=O)C(=O)/C(=C/c2ccc(OC(C)=O)cc2)N1C | > 100 µM (inactive) | > 100 µM (inactive) | > 100 µM (inactive) | 88.9 µM (inactive) | > 100 µM (inactive) |  | > 100 µM (inactive) | > 100 µM (inactive) | > 100 µM (inactive) | > 100 µM (inactive) | > 100 µM (inactive) | > 100 µM (inactive) | > 100 µM (inactive) | > 100 µM (inactive) | > 100 µM (inactive) | > 100 µM (inactive) | > 100 µM (inactive) | > 100 µM (inactive) | > 100 µM (inactive) | > 100 µM (inactive) |
| O=C1/C(=C/c2ccc([N+](=O)[O-])cc2)C(=O)N(c2ccccc2)C1c1ccccc1 (stereo not given) | > 10 µM (inactive) | > 10 µM (inactive) | > 10 µM (inactive) | > 10 µM (inactive) |  | > 10 µM (inactive) | > 10 µM (inactive) | > 10 µM (inactive) | > 10 µM (inactive) | > 10 µM (inactive) | > 10 µM (inactive) | > 10 µM (inactive) | > 10 µM (inactive) | > 10 µM (inactive) | > 10 µM (inactive) | > 10 µM (inactive) | > 10 µM (inactive) | > 10 µM (inactive) | > 10 µM (inactive) | > 10 µM (inactive) |
